The results in this text go back to patent publication US20140314857A1, “FORMULATIONS FOR ENHANCED BIOAVAILABILITY OF ZANAMIVIR” (priority 2012, published 2014).

This data set has as its system Caco-2 cell monolayers. As to the kind of experiment: Initial screening of permeability enhancers with peramivir across Caco-2 cell monolayers. To be noted: with glycerol or Capmul MCM L8 as enhancer; results not shown. On the technique in general: Passage across Caco-2 layers is used to estimate intestinal permeability.

Regarding `CCC(CC)[C@H](NC(C)=O)[C@@H]1[C@H](O)[C@@H](C(=O)O)C[C@H]1N=C(N)N` [peramivir], the “drug transport across Caco-2 cell monolayers” value is “substantially increased drug transport”.
